Changes are numbered by the printed parent chain.
How the values were obtained:
[1] = molecular target: T1, GCase N370S (N370/ΔGG human mutant Gaucher fibroblasts) (Homo sapiens, UniProt P04062, N409S); assay: EC50 cell-based assay for GCase, mutant N370/ΔGG fibroblasts (GCase N370S); details: 5 days compound treatment (0-20 μM)
T1 construct: The human mutant Gaucher fibroblasts were purchased from Coriell Institute; host or cells: human Gaucher fibroblasts N370/ΔGG
T1 sequence (P04062 40-536 N409S): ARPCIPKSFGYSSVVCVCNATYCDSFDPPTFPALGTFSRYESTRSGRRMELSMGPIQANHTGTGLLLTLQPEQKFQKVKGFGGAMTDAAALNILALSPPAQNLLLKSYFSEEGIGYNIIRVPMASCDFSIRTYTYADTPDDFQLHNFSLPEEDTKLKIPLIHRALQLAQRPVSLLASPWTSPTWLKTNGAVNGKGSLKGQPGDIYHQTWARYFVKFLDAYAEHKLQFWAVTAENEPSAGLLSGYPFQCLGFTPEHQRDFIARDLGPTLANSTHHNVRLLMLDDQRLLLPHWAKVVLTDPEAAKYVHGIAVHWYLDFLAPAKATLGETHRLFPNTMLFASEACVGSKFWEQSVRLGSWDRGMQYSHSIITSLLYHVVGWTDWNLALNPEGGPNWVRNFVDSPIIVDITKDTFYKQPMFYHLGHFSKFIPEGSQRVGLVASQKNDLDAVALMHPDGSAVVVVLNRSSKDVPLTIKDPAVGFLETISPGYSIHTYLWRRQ
Procedure: (§1) In cell assays, GCase activity measurements were carried out on harvested cell pellets on the 5th day of Compound treatment. Healthy human fibroblasts (GCase cell), mutant N370/ΔGG (GCase N370S) or L444P/L444P (GCase L444P) were incubated with the Compound (0-20 μM) for 5 days with 15% fetal bovine serum (FBS) in Dulbecco's Modified Eagle Medium (DMEM) in 100 mm culture dishes. Fresh Medium with Compound were replaced every other day. On the 5th day of Compound treatment, harvested cell pellets were lysed with 1% Na-taurocholate (Tc) and 1% Triton X-100 (Tx), and mixed with the reaction buffer which contained 0.025 mM Citric phosphate buffer (pH 5.6), 0.25% Tc/Tx and 4 mM 4-MuGlu, then incubated at 37° C. for 1 hour. EC50 represents the concentration of a Compound that produces 50% of its maximal response in the cell-based GCase activity assay.
(§2) GCase activities were determined fluorometrically with 4-MuGlu. The relative fluorescence unit (RFU) of 4-MuGlu standard curve is generated with the plate reader (M5, Molecular Devise) as 1 n mole=56500 RFU. The human mutant Gaucher fibroblasts were purchased from Coriell Institute (Camden, NJ): N370/ΔGG (Cat #: GM00852) and L444P/L444P (cat #: GM00877)

[2] = molecular target: T2, GCase L444P (L444P/L444P human mutant Gaucher fibroblasts) (Homo sapiens, UniProt P04062, L483P); assay: EC50 cell-based assay for GCase, mutant L444P/L444P fibroblasts (GCase L444P); details: 5 days compound treatment (0-20 μM)
T2 construct: The human mutant Gaucher fibroblasts were purchased from Coriell Institute; host or cells: human Gaucher fibroblasts L444P/L444P
T2 sequence (P04062 40-536 L483P): T1 sequence (P04062 40-536 N409S) with S370N, L444P
Procedure: as §1, §2

[3] = molecular target: T3, GCase (purified enzyme, Velaglucerase alfa, VPRIV) (Homo sapiens, UniProt P04062); assay: GCase AC50 enzyme activity assay; assay type: biochemical; details: pH 5.6, 4-MuGlu substrate, compounds 0-40 μM
T3 construct: purchased Shire Human Genetic Therapies, Cambridge, MA
T3 sequence (P04062 40-536): T1 sequence (P04062 40-536 N409S) with S370N
Procedure: An in vitro enzyme assay was performed through a dose response curve of Compounds (0-40 μM) with purified enzyme (Velaglucerase alfa, VPRIV®, Shire Human Genetic Therapies, Cambridge, MA) in citric phosphate [0.025 mM] buffer (pH 5.6) where 4-MuGlu [4 mM] was the substrate. Compounds were pre-incubated with the enzyme for 40 minutes at room temperature prior to substrate addition, and then incubated at 37° C. for 1 hour. AC50 represents the concentration of a Compound that produces 50% of its maximal response in the in vitro GCase activity assay.
as §2

[4] = molecular target: T4, GCase in healthy human fibroblasts (Homo sapiens, UniProt P04062); assay: EC50 cell-based assay for GCase, healthy human fibroblasts (GCase cell); details: 5 days compound treatment (0-20 μM)
T4 construct: Healthy human fibroblasts (GCase cell); endogenous in cells; host or cells: healthy human fibroblasts
T4 sequence (P04062 40-536): T1 sequence (P04062 40-536 N409S) with S370N
Procedure: as §1, §2

COc1ccc(NC(=O)c2nc3cccc(C(=O)NCC4CCCO4)c3o2)cc1 (stereo not drawn) [Compound 8, N7-((tetrahydrofuran-2-yl)methyl)-N2-(4-methoxyphenyl)benzo[d]oxazole-2,7-dicarboxamide]
< 10 µM: EC50 [1] | EC50 [2] | AC50 [3] | EC50 [4]

O=C(Nc1ccc(O)cc1)c1nc2cc(F)cc(C(=O)NCC3CCO3)c2o1 (stereo not drawn) [Compound 26, 5-fluoro-N2-(4-hydroxyphenyl)-N7-(oxetan-2-ylmethyl)benzo[d]oxazole-2,7-dicarboxamide]
< 10 µM: EC50 [1] | EC50 [2] | AC50 [3] | EC50 [4]

CN1CCC(NC(=O)C(C)(C)Oc2ccccc2C(=O)NCC2CCCO2)CC1 (stereo not drawn) [Compound 37, 2-(2-(1-methylpiperidin-4-ylcarbamoyl)propan-2-yloxy)-N-((tetrahydrofuran-2-yl)methyl)benzamide]
< 10 µM: EC50 [1] | EC50 [2] | AC50 [3] | EC50 [4]

— US20250382274A1, “COMPOSITIONS AND METHODS FOR THE TREATMENT OF PARKINSON'S AND GAUCHER DISEASE” (CHILDREN'S HOSPITAL MEDICAL CENTER, priority 2024, published 2025)
